Measured values reported in PubChem BioAssay (NCI).
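Five concentrations, 48 hours, 96-well plates. GI50 is the concentration that inhibits growth by half. TGI is the concentration that stops growth completely.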 *1 amine or outer side, *2 acyl side, *3 side chain or, on linkers, in order; H or OH if unused. Where a SMILES comes first, the peptide text is derived from it. The star is where a group is joined. γGlu = O=C(O)[CH](CCC(=O)[*:2])N[*:1]; NHOH = ON*

Key:
Assay in all cases: DTP human tumour cell line panel, 48 h
A549 NSCLC = system: A549 NSCLC
U251 CNS = system: U251 CNS
NCI-H522 lung = system: NCI-H522 lung
MOLT-4 leukemia = system: MOLT-4 leukemia
HCT-116 colon = system: HCT-116 colon
CAKI-1 renal = system: CAKI-1 renal
SW-620 colon = system: SW-620 colon
OVCAR-3 ovarian = system: OVCAR-3 ovarian
UO-31 renal = system: UO-31 renal
COLO 205 colon = system: COLO 205 colon
MDA-MB-435 = system: MDA-MB-435
786-0 renal = system: 786-0 renal

| SMILES | TGI (A549 NSCLC) [µM] | TGI (U251 CNS) [µM] | GI50 (NCI-H522 lung) [µM] | TGI (NCI-H522 lung) [µM] | TGI (MOLT-4 leukemia) [µM] | TGI (HCT-116 colon) [µM] | TGI (CAKI-1 renal) [µM] | TGI (SW-620 colon) [µM] | TGI (OVCAR-3 ovarian) [µM] | TGI (UO-31 renal) [µM] | GI50 (COLO 205 colon) [µM] | TGI (COLO 205 colon) [µM] | TGI (MDA-MB-435) [µM] | TGI (786-0 renal) [µM] |
| --- | --- | --- | --- | --- | --- | --- | --- | --- | --- | --- | --- | --- | --- | --- |
| Cc1c2ccccc2c(/C=N/NC(=O)CSCC(=O)N/N=C/c2c3ccccc3c(C)c3ccccc23)c2ccccc12 | > 100 | > 57.6 | > 100 | > 100 | > 87.8 | > 100 | > 100 | > 100 | > 80.9 | > 100 | > 100 | > 100 | > 100 | > 52.8 |
| CC(Nc1cccc(Cl)c1)c1ccncc1 (stereo not drawn) | > 100 | > 100 | – | > 100 | > 100 | > 100 | > 100 | > 100 | > 100 | > 100 | – | > 100 | > 100 | > 100 |
| CN(C(=O)Cc1cc(Cl)c(Cl)cc1NC(=O)CCCN)[C@H]1CCCC[C@@H]1N1CCCC1 | 83.1 | 35.3 | – | 29.8 | > 100 | > 100 | > 100 | 91.2 | > 100 | > 100 | – | 35 | 31.6 | 36.2 |
| O=C1O/C(=C(\Br)c2ccc([N+](=O)[O-])cc2)c2ccccc21 | > 100 | > 100 | – | > 88.8 | > 69.1 | > 100 | > 100 | > 100 | > 100 | > 100 | – | > 100 | > 100 | > 100 |
| COP(=O)(OC)[C@@](O)(c1ccccc1)[C@@H](O)[C@H](O)c1ccccc1 | > 100 | > 100 | – | > 100 | > 100 | > 100 | > 100 | > 100 | > 100 | > 100 | – | > 100 | > 100 | > 100 |
| COc1ccc(Nc2nc3ccccc3nc2-c2cccs2)cc1OC | > 10 | > 10 | – | > 10 | > 10 | > 10 | > 10 | > 10 | > 10 | > 10 | – | > 10 | > 10 | > 10 |
| CC1=NN(c2ccccc2)C(=O)/C1=C1\SC(c2ccccc2)(c2ccccc2)c2ccccc21 | > 100 | > 100 | – | > 100 | > 100 | > 100 | > 100 | > 100 | > 100 | > 100 | – | > 100 | > 100 | > 100 |
| Cc1cccc(C)c1NC(=S)N/C=C(\C#N)C(N)=O | > 100 | > 100 | – | > 100 | > 100 | > 100 | > 100 | > 100 | > 100 | > 100 | – | > 100 | > 100 | > 100 |
| CN(C)CC1CCC/C(=C\c2ccc(Cl)c(Cl)c2)C1=O (stereo not drawn) | 30.4 | 6.52 | – | 4.1 | 4.83 | 3.96 | 7.7 | > 29.3 | 13.4 | 5.99 | – | 7.27 | 18.1 | 3.42 |
| NC(=O)N/N=C(\Cc1cc(=O)oc2cc(O)ccc12)C(=O)Nc1ccccc1C(N)=O | > 100 | > 100 | – | > 100 | > 100 | > 100 | > 100 | > 100 | > 100 | > 100 | – | > 100 | > 100 | > 100 |
| CCOC(=O)CCCN | > 100 | > 100 | – | > 100 | > 100 | > 100 | > 100 | > 100 | > 100 | > 100 | – | > 100 | > 100 | > 100 |
| NC(CCC(=O)NC(CCC(=O)NO)C(=O)NCC(=O)O)C(=O)O (stereo not drawn) (γGlu-Glu(NHOH)-Gly-OH; configuration not given here) | > 100 | > 100 | – | > 100 | > 100 | > 100 | > 100 | > 100 | > 100 | > 100 | – | > 100 | > 100 | > 100 |
| COc1ccc(C2c3cc4c(cc3OC(N3CCOCC3)C2C)OCO4)cc1OC (stereo not drawn) | > 85 | 29.5 | – | 22.8 | 77.9 | 50.8 | 26.4 | > 100 | 13.2 | > 100 | – | > 44.2 | 6.25 | 53.8 |
| CC(C)(C)c1ccc(O)c(C(O)c2ccccn2)c1 (stereo not drawn) | > 100 | > 100 | – | > 100 | > 100 | > 100 | > 100 | > 100 | > 100 | > 100 | – | > 100 | > 100 | > 100 |
| O=C(Nc1ccc(Cl)cc1)c1cc(S(=O)(=O)Nc2nc3ncccc3[nH]2)c(SSc2cc(Cl)c(C(=O)Nc3ccc(Cl)cc3)cc2S(=O)(=O)Nc2nc3ncccc3[nH]2)cc1Cl | > 100 | > 100 | – | > 100 | > 100 | > 100 | > 100 | > 100 | > 100 | > 100 | – | > 100 | > 100 | > 100 |
| CCOC(=O)Cn1nnc2ccc(Nc3nc4ccccc4nc3C(=O)OCC)cc21 | > 100 | > 100 | – | > 100 | > 100 | > 100 | > 100 | > 100 | > 100 | > 100 | – | > 100 | > 100 | > 100 |
| CCCCOc1ccc(/C=C/C2=[N+](CCO)CCO2)cc1 | > 100 | > 100 | – | > 100 | > 100 | > 100 | > 100 | 86.5 | > 100 | > 100 | – | 54.3 | > 100 | > 100 |
| c1ccc(CCCN2C3CCC2CN(CCOC(c2ccccc2)c2ccccc2)C3)cc1 | 27.2 | 20.6 | – | 23 | 25.3 | 19.8 | 25.7 | 44.8 | 30.4 | 24.8 | – | 4.36 | 29 | 21.6 |
